Source: US11897862B2 (Gilead Sciences, Inc., priority 2022, dated 2024)

Key:
Type in all cases: cell-based
IKZF2 [1] = target: T1, IKZF2 (Homo sapiens, UniProt Q96SW2+Q9UKS7); assay: HEK293 HiBiT in vitro degradation of IKZF2; set-up: expressed in transfected cells; conditions: for Dmax: HEK293, HEK293 HiBiT; for Dmax / IKZF2 Dmax: maximum degradation at the highest concentration tested; for DC50 / IKZF2 Dmax: HEK293 HiBiT; for DC50: 18-24 hr incubation, normalized to DMSO control, read-out: IKZF2 EC50
How it was run: (§1)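 Dox-inducible ([…] final, overnight) HEK293 Flp-In T-REx, single-copy target-HiBiT C-terminal fusion; compound serial dilution, 18-24 h, 37 °C; lytic Nano-Glo luminescence; EC50, Dmax.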
Target sequence in this assay (Q9UKS7 1-500 isoform Q9UKS7-2): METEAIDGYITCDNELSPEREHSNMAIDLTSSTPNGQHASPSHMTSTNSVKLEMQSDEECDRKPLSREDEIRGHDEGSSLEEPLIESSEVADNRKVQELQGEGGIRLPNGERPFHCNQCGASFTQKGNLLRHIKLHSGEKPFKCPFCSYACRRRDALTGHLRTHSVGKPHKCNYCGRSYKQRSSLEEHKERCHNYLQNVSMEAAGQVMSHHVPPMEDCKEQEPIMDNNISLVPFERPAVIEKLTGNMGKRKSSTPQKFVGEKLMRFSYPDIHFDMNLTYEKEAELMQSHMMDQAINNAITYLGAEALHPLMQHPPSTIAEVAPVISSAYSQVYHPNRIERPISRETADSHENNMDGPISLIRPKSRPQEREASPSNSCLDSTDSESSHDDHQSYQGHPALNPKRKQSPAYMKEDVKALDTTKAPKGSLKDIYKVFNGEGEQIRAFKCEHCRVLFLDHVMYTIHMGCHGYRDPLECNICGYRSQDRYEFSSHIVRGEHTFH
Target sequence in this assay (Q96SW2 whole entry, the tested form may be a part): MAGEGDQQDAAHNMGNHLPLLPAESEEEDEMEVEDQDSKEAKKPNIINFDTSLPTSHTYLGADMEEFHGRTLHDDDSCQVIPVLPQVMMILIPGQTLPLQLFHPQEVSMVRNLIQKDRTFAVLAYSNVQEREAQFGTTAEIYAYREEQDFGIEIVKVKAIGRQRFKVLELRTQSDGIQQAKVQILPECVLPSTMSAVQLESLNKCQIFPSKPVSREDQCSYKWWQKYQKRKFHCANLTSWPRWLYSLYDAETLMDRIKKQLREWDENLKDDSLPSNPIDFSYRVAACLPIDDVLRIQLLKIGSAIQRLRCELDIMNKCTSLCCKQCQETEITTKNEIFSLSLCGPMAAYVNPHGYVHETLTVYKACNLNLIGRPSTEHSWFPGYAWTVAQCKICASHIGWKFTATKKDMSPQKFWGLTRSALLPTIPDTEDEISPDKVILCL
Target sequence in this assay (Q16531 whole entry partner, the tested form may be a part): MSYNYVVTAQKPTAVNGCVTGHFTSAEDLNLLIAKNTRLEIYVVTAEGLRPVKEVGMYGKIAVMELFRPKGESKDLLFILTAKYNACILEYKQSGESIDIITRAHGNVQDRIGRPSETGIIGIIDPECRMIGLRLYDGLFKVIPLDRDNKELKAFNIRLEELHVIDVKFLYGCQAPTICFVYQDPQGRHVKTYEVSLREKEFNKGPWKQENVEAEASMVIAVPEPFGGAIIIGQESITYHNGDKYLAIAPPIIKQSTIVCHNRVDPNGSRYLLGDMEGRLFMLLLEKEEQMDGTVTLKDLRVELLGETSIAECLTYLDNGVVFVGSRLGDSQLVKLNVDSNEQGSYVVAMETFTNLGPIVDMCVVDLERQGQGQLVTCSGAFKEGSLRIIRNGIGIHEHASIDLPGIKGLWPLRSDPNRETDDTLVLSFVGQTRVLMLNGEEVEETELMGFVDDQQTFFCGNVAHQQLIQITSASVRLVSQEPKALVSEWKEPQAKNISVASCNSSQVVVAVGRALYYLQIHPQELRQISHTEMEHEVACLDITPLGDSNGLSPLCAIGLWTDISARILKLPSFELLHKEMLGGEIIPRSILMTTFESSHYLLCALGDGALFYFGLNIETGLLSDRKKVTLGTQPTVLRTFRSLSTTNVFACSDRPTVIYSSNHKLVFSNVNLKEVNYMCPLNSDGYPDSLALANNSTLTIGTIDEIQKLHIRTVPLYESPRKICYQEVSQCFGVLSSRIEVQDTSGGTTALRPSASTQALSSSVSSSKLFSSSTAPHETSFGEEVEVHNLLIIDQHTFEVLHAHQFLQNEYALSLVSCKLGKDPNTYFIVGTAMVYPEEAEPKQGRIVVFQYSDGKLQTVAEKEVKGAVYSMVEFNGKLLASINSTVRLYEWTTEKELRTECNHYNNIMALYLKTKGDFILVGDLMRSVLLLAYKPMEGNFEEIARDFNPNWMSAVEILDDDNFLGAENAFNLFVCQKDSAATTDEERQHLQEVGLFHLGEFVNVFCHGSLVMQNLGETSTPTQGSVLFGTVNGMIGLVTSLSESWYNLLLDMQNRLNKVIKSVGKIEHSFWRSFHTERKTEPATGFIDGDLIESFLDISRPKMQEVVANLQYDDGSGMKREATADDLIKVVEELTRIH

IKZF1 = target: T2, IKZF1 (Homo sapiens, UniProt Q13422+Q96SW2); assay: HEK293 HiBiT in vitro degradation of IKZF1; conditions: for Dmax: HEK293, HEK293 HiBiT; for Dmax / IKZF1 Dmax: maximum degradation at the highest concentration tested; for DC50 / IKZF1 Dmax: HEK293 HiBiT; for DC50: 18-24 hr incubation, normalized to DMSO control, read-out: IKZF1 EC50
T2 construct: expressed in transfected cells
How it was run: as §1

IKZF2 [2] = target: T1, IKZF2; assay: Human whole blood IKZF2 degradation (flow cytometry, CD4/CD25/Foxp3+ Treg cells); set-up: endogenous in cells; conditions: 24 hrs incubation, IKZF2 MFI in CD4/CD25/Foxp3+ Treg cells, flow cytometry; for DC50: read-out: IKZF2 EC50
Protocol: In vitro IKZF2 potency was assessed in human whole blood using a fluorescence activated cell sorting assay. 50 μL of freshly collected blood from healthy human volunteers was incubated with Immunocult CD3/CD28 activator (Stemcell Technologies) and solution of testing compounds (serially-diluted) for 24 hrs hours at 37° C. in 384 well plates. The treated red blood cells were removed by adding lysis buffer (BD cat #558049) then the cells were fixed, permeabilized, and stained with anti-CD4 (BD cat #564419), anti-Foxp3 (Invitrogen cat #48-4777-42), anti-IKZF1 (Cell Signaling Tech. cat #33462S), and anti-IKZF2(Cell Signaling Tech. cat #65432S) antibodies. The median fluorescent intensity (MFI) of IKZF2 signal from CD4/CD25/Foxp3+ Treg cells and MFI of IKZF1 signal from CD4+ T cells were quantified in the same samples by flow cytometry using an Attune instrument. EC50 and Dmax of each compound was determined by plotting the MFI and DMSO treated wells were used as control. Asterisks (*) indicate examples for which data represents an average of n≥3 repeat experiments.
Target sequence in this assay (Q9UKS7 whole entry, the tested form may be a part): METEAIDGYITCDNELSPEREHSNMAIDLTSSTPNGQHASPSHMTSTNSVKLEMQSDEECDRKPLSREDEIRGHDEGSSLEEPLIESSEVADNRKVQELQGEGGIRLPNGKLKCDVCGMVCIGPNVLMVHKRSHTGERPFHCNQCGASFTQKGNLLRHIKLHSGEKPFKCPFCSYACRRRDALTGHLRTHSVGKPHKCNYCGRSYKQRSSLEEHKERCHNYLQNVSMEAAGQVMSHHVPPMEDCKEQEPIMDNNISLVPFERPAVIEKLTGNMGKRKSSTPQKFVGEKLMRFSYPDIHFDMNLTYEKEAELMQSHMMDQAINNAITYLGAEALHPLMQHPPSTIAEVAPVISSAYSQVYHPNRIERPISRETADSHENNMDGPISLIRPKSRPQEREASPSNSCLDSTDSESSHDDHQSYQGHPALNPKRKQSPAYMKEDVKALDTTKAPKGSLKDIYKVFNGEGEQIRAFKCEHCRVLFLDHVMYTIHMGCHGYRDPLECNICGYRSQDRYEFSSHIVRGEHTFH
Target sequence in this assay (Q96SW2 whole entry, the tested form may be a part): as the sequence (Q96SW2 whole entry, the tested form may be a part) above
Target sequence in this assay (Q16531 whole entry partner, the tested form may be a part): as the sequence (Q16531 whole entry partner, the tested form may be a part) above

T2 sequence (Q13422 whole entry): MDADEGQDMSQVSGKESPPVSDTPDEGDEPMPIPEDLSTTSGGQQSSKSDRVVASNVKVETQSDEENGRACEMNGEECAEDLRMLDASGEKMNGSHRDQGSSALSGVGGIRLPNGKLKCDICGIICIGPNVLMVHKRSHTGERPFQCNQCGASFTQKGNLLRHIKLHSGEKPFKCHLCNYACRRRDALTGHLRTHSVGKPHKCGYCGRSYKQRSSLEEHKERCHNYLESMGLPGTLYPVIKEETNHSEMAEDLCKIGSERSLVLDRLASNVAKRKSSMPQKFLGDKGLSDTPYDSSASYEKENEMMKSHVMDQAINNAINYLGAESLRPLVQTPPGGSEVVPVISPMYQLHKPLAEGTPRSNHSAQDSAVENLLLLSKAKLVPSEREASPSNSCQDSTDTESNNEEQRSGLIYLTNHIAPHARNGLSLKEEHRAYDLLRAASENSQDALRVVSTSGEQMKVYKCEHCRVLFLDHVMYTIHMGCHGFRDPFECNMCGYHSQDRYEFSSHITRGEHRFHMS
T2 sequence (Q96SW2 whole entry): as the sequence (Q96SW2 whole entry, the tested form may be a part) above
T2 sequence (Q16531 whole entry partner): as the sequence (Q16531 whole entry partner, the tested form may be a part) above

Molecule `CC1(C)CC(N[C@H]2CCCC[C@@H]2Cc2ccc3c(c2)CN(C2CCC(=O)NC2=O)C3=O)C1` (stereo partly drawn) [Example 82, 3-(5-(((1R,2S)-2-((3,3-dimethylcyclobutyl)amino)cyclohexyl)methyl)-1-oxoisoindolin-2-yl)piperidine-2,6-dione] has a Dmax (IKZF2 [1]) of 94%, a DC50 (IKZF2 [1]) of 7 nM and a Dmax (IKZF1) of 28%. For the same molecule, the DC50 (IKZF1) was 327 nM, the Dmax (IKZF2 [2]) was 89% and the DC50 (IKZF2 [2]) was 4 nM.
`CC(C)N[C@H]1CCCC[C@@H]1Cc1ccc2c(c1F)CN(C1CCC(=O)NC1=O)C2=O` (stereo partly drawn) [Example 85, 3-(4-fluoro-5-(((1R,2S)-2-(isopropylamino)cyclohexyl)methyl)-1-oxoisoindolin-2-yl)piperidine-2,6-dione] showed a Dmax (IKZF2 [1]) of 97%, a DC50 (IKZF2 [1]) of 2 nM and a Dmax (IKZF1) of 40%. It also gave a DC50 (IKZF1) of 70 nM, a Dmax (IKZF2 [2]) of 96% and a DC50 (IKZF2 [2]) of 2 nM.
`CC(C)(C)CCN[C@H]1CCCC[C@@H]1Cc1ccc2c(c1F)CN(C1CCC(=O)NC1=O)C2=O` (stereo partly drawn) [Example 89, 3-(5-(((1R,2S)-2-((3,3-dimethylbutyl)amino)cyclohexyl)methyl)-4-fluoro-1-oxoisoindolin-2-yl)piperidine-2,6-dione] showed a Dmax (IKZF2 [1]) of 97%, a DC50 (IKZF2 [1]) of 6 nM and a Dmax (IKZF1) of 28%. The DC50 (IKZF1) was 64 nM, the Dmax (IKZF2 [2]) was 97% and the DC50 (IKZF2 [2]) was 5 nM.
In the case of `O=C1CCC(N2Cc3cc(C[C@H]4OCCC[C@@H]4NC4CCCCC4)ccc3C2=O)C(=O)N1` (stereo partly drawn) [Example 95, 3-(5-(((2R,3S)-3-(cyclohexylamino)tetrahydro-2H-pyran-2-yl)methyl)-1-oxoisoindolin-2-yl)piperidine-2,6-dione], the Dmax (IKZF2 [1]) is reported as 88%, the DC50 (IKZF2 [1]) is reported as 16 nM and the DC50 (IKZF1) is reported as > 10000 nM. It also gave a Dmax (IKZF2 [2]) of 89% and a DC50 (IKZF2 [2]) of 11 nM.
`O=C1CCC(N2Cc3cc(C[C@H]4CCCC[C@@H]4NC4CC5(C4)CC(F)(F)C5)ccc3C2=O)C(=O)N1` (stereo partly shown) [Example 101] showed a Dmax (IKZF2 [1]) of 98%, a DC50 (IKZF2 [1]) of 5 nM and a Dmax (IKZF1) of 32%. The DC50 (IKZF1) was 39 nM, the Dmax (IKZF2 [2]) was 95% and the DC50 (IKZF2 [2]) was 6 nM.
`CC(N[C@H]1CCCC[C@@H]1Cc1ccc2c(c1)CN(C1CCC(=O)NC1=O)C2=O)C1CCC1` (stereo partly shown) [Example 103] was tested, and the Dmax (IKZF2 [1]) was 95%, the DC50 (IKZF2 [1]) was 3 nM and the DC50 (IKZF1) was > 1000 nM. It also gave a Dmax (IKZF2 [2]) of 96% and a DC50 (IKZF2 [2]) of 4 nM.
In the case of `CC1(C)CC(N[C@H]2CCCC[C@@H]2Cc2ccc3c(c2)CN(C2CCC(=O)NC2=O)C3=O)CCO1` (stereo partly shown) [Example 109], the Dmax (IKZF2 [1]) is reported as 96%, the DC50 (IKZF2 [1]) is reported as 5 nM and the Dmax (IKZF1) is reported as 34%. It also gave a DC50 (IKZF1) of 103 nM, a Dmax (IKZF2 [2]) of 97% and a DC50 (IKZF2 [2]) of 1 nM.
In the case of `CC1(C)CC(N[C@H]2CCCC[C@@H]2Cc2ccc3c(c2)CN(C2CCC(=O)NC2=O)C3=O)CCO1` (stereo partly shown) [Example 110], the DC50 (IKZF2 [1]) is reported as 5 nM, the “IKZF2 Dmax” value (IKZF2 [1]) is reported as 96% and the DC50 (IKZF1) is reported as 163 nM. The “IKZF1 Dmax” value (IKZF1) was 32%, the “IKZF2 Dmax” value (IKZF2 [2]) was 98% and the DC50 (IKZF2 [2]) was 3 nM.
`O=C1CCC(N2Cc3c(ccc(C[C@H]4CCCC[C@@H]4NCC4COC4)c3F)C2=O)C(=O)N1` (stereo partly shown) [Example 114] gave a Dmax (IKZF2 [1]) of 98%, a DC50 (IKZF2 [1]) of 8 nM and a Dmax (IKZF1) of 28%. The DC50 (IKZF1) was 88 nM, the Dmax (IKZF2 [2]) was 98% and the DC50 (IKZF2 [2]) was 5 nM.
Molecule `O=C1CCC(N2Cc3c(ccc(C[C@H]4CCCC[C@@H]4NCC4CCOCC4)c3F)C2=O)C(=O)N1` (stereo partly shown) [Example 115] has a Dmax (IKZF2 [1]) of 96%, a DC50 (IKZF2 [1]) of 8 nM and a Dmax (IKZF1) of 37%. The DC50 (IKZF1) was 78 nM, the Dmax (IKZF2 [2]) was 90% and the DC50 (IKZF2 [2]) was 6 nM.
`O=C1CCC(N2Cc3c(ccc(C[C@H]4CCCC[C@@H]4NC4CCOC4)c3F)C2=O)C(=O)N1` (stereo partly shown) [Example 117] was tested, and the Dmax (IKZF2 [1]) was 97%, the DC50 (IKZF2 [1]) was 2 nM and the Dmax (IKZF1) was 46%. For the same molecule, the DC50 (IKZF1) was 39 nM, the Dmax (IKZF2 [2]) was 92% and the DC50 (IKZF2 [2]) was 1 nM.
In the case of `O=C1CCC(N2Cc3c(ccc(C[C@H]4CCCC[C@@H]4NC4CCOC4)c3F)C2=O)C(=O)N1` (stereo partly shown) [Example 118], the DC50 (IKZF2 [1]) is reported as 2 nM, the “IKZF2 Dmax” value (IKZF2 [1]) is reported as 97% and the DC50 (IKZF1) is reported as 57 nM. The “IKZF1 Dmax” value (IKZF1) was 44%, the “IKZF2 Dmax” value (IKZF2 [2]) was 91% and the DC50 (IKZF2 [2]) was 1 nM.
For `[2H]C1(N[C@H]2CCCC[C@@H]2Cc2ccc3c(c2)CN(C2CCC(=O)NC2=O)C3=O)CCC(F)(F)CC1` (stereo partly shown) [Example 119], the Dmax (IKZF2 [1]) was 98%, the DC50 (IKZF2 [1]) was 2 nM and the Dmax (IKZF1) was 54%. It also gave a DC50 (IKZF1) of 46 nM, a Dmax (IKZF2 [2]) of 92% and a DC50 (IKZF2 [2]) of 2 nM.
